One experiment relates to TNFα. Put plainly: TNFα secretion by human white blood cells stimulated with PMA/ionomycin, synergy score. It is filed as cell-based. Further details: key: S = Σ Idata(Idata−ILoewe) × ln dilution factors; volume over Loewe additivity. The conditions noted are these: PBMC stimulated with PMA/Ionomycin. Here is the method: A 100 μl suspension of diluted human white blood cells contained within each well of a polystyrene 384-well plate (NalgeNunc) was stimulated to secrete TNFα by treatment with a final concentration of 10 ng/mL phorbol 12-myristate 13-acetate (Sigma, P-1585) and 750 ng/mL ionomycin (Sigma, I-0634). Various concentrations of each test compound were added at the time of stimulation. After 16-18 hours of incubation at 37° C. in a humidified incubator, the plate was centrifuged and the supernatant transferred to a white opaque polystyrene 384-well plate (NalgeNunc, Maxisorb) coated with an anti-TNFα antibody (PharMingen, #551220). After a two-hour incubation, the plate was washed (Tecan PowerWasher 384) with PBS containing 0.1% Tween 20 and incubated for an additional one hour with another anti-TNFα antibody that was biotin labeled (PharMingen, #554511) and HRP coupled to strepavidin (PharMingen, #13047E). After the plate was washed with 0.1% Tween 20/PBS, an HRP-luminescent substrate was added to each well and light intensity measured using a LJL Analyst plate luminometer.
The synergy scores calculated for the various combinations of compounds set forth in Table 3 was calculated by the formula S=log fX log fYΣIdata(Idata−ILoewe), summed over all non-single-agent concentration pairs, and where log fX,Y are the natural logarithm of the dilution factors used for each single agent. This effectively calculates a volume between the measured and Loewe additive response surfaces, weighted towards high inhibition and corrected for varying dilution factors.

Experiment [1] deals with carrageenan-induced pain model in rats. Put plainly: Carrageenan pain model, mechanical allodynia by Von Frey filaments. It is filed as in vivo, Sprague-Dawley rats. The conditions noted are these: for Mean change from baseline ± SEM: 25 mg/kg; for mean change from baseline: Table 4, 25 mg/kg ip. The procedure: The carrageenan model is a fast, reliable model used to assess the ability of analgesics to block inflammatory pain. The analgesic effects of test article combinations on pain generation are assayed using the carrageenan-induced pain model in rats. Adult male Sprague-Dawley rats are administered study drugs intraperitoneally (vehicle, tricyclic compound (TCA), steroid or TCA/Steroid test article combinations) once daily for 2 days (day −2 and day −1) and 30 minutes prior to the carrageenan injection on day 0 (time=0). For the carrageenan injection, animals are lightly anesthetized and 0.1 ml of 2% carrageenan is injected into the plantar surface of the right hind paw. The positive control diclofenac at a dose of 25 mg/kg is administered intraperitoneally immediately before the carrageenan injection. Paw volumes (right and left) are measured using a plathysmometer before drug administration on day −2 and serve as a baseline measurement. The paw volumes are measured again two hours post carrageenan injection. The degree of mechanical allodynia is measured by a blinded observer using Von Frey filaments applied to the plantar surface of the hind paws in an increasing numerical order. Each filament increases the force applied on the paw. The filaments are applied until animal paw withdrawal is achieved. This procedure is carried out before drug administration (day −2), on day −1 and on day 0 at time=0, 20, 40, 60, 80 and 120 minutes post-carrageenan. The force (expressed in grams) required for paw withdrawal after carrageenan injection is subtracted from the force required for paw withdrawal before carrageenan injection. Results are expressed as mean change from baseline across five timepoints post carrageenan injection in Table 4.
For a synergy calculation, experimental data from the carrageenan study are fitted to a median-effect model and used to calculate the parameters' median-effect dose (Dm), slope (m), correlation coefficient (r), combination index (CI) and dose-reduction index (DRI). In addition, the probability of pain inhibition occurring after single-component (nortriptyline) versus the combination drug treatments are calculated from the negative change from baseline data using a Bayesian sensitivity analysis. The likelihood of pain inhibition is characterized for nortriptyline administered alone (1 mg/kg or 3 mg/kg) versus the fixed-dose combination treatments [prednisolone (0.3 mg/kg):nortriptyline (1 mg/kg) or prednisolone (1 mg/kg):nortriptyline (3 mg/kg)] each evaluated at 60 and 80 minutes for analgesic effect.
In another example, the effects of test article combinations on pain inhibition were assayed using the carrageenan model in rodents. Desipramine was tested alone and in combination at 0.3, 1, and 3 mg/kg and prednisolone was tested similarly at 0.3, 1 and 3 mg/kg IP.

For experiment [2], the system named is formalin-induced pain model in rats. As to the kind of experiment: Formalin pain model, nociceptive behaviors. It is filed as in vivo, Sprague-Dawley rats. The conditions noted are these: 20 mg/kg. The procedure:
The formalin model is a fast, reliable model used to assess potential analgesics ability to block inflammatory pain. The analgesic effects of test article combinations on pain generation are assayed using the formalin-induced pain model in rats. Adult male Sprague-Dawley rats are administered intraperitoneally study drugs (vehicle, TCA, steroid or TCA/Steroid test article combinations) once daily for 2 days (day −2 and day −1) and 30 minutes prior to the formalin injection day on day 0 (time=0). […] To elicit a pain response, dilute formalin (2% in saline) is injected under the skin of the plantar surface of the right hindpaw. The animal is placed in an observation chamber. The pain response is a characteristic biphasic response pattern of nociceptive behaviors (lifting, licking, and biting of the injected paw). Two distinct periods of nociceptive behaviors/activity are observed and recorded: an early phase (phase I) lasting the first 5-10 min and a late phase (phase II) lasting 20-40 min after the injection of formalin. One hour of data is collected (time spent displaying pain behavior) by a blinded observer using a stopwatch. Results are expressed as the number of pain behaviors per 5 minute periods (Table 8 and Table 9).

Each structure is given as a SMILES string.

On to `Clc1ccc2c(c1)C(N1CCNCC1)=Nc1ccccc1O2` [Amoxapine], for which the “Synergy Score based on TNF-α inhibition” value in the experiment with TNFα (combination with Betamethasone) was determined as 0.68; in the experiment on TNFα (combination with Budesonide), 0.63; with TNFα (combination with Dexamethasone) it was 1.3; in the experiment with TNFα (combination with Hydrocortisone), 0.56; in the experiment with TNFα (combination with Prednisolone), 1.1; with TNFα (combination with Triamcinolone), 0.37.
As for `O=C(O)Cc1ccccc1Nc1c(Cl)cccc1Cl` [Diclofenac], the “Mean AUC ± SEM” value in experiment [1] (25 mg/Kg, AUC from 20 minutes through 120 minutes following carrageenan injection) came out at 5332 ± 772.96. Besides, the “Mean change from baseline ± SEM” value in experiment [1] (Experiment One, 20 minutes) is -17.50 ± 11.24 g; in experiment [1] (Experiment One, 40 minutes) it was -74.70 ± 13.27 g; in experiment [1] (Experiment One, 60 minutes) it was -146.70 ± 16.73 g; in experiment [1] (Experiment One, 80 minutes) it was -203.30 ± 15.02 g; in experiment [1] (Experiment One, 120 minutes), -259.90 ± 15.14 g; in experiment [1] (Experiment Two, first set of rows, 20 minutes) it was 5.91 ± 7.99 g. The “Mean change from baseline ± SEM” value was 3.89 ± 5.82 g in experiment [1] (Experiment Two, first set of rows, 40 minutes); 5.94 ± 10.01 g in experiment [1] (Experiment Two, first set of rows, 60 minutes); -2.47 ± 9.56 g in experiment [1] (Experiment Two, first set of rows, 80 minutes); -11.26 ± 8.92 g in experiment [1] (Experiment Two, first set of rows, 120 minutes); -8.50 ± 5.56 g in experiment [1] (Experiment Two, second set of rows, 20 minutes); -12.75 ± 6.22 g in experiment [1] (Experiment Two, second set of rows, 40 minutes). Also, the “Mean change from baseline ± SEM” value was -8.50 ± 8.50 g in experiment [1] (Experiment Two, second set of rows, 60 minutes); -12.75 ± 6.22 g in experiment [1] (Experiment Two, second set of rows, 80 minutes); -17.75 ± 6.74 g in experiment [1] (Experiment Two, second set of rows, 120 minutes). For the same compound, the “mean change from baseline” value in experiment [1] (20 minutes post carrageenan) is −17.50 ± 11.24 grams; in experiment [1] (40 minutes post carrageenan), −74.70 ± 13.27 grams; in experiment [1] (60 minutes post carrageenan) it was −146.70 ± 16.73 grams; in experiment [1] (80 minutes post carrageenan), −203.30 ± 15.02 grams; in experiment [1] (120 minutes post carrageenan) it was −259.90 ± 15.14 grams.
In the case of `CN1CC[C@]23c4c5ccc(O)c4O[C@H]2[C@@H](O)C=C[C@H]3[C@H]1C5` [Morphine], the “Mean number of behaviors per 5 minute block” value is reported as 116.0 ± 39.2 in experiment [2] (Experiment One, amitriptyline, 5 minutes); 19.0 ± 13.7 in experiment [2] (Experiment One, amitriptyline, 10 minutes); 17.0 ± 10.4 in experiment [2] (Experiment One, amitriptyline, 15 minutes); 53.0 ± 32.2 in experiment [2] (Experiment One, amitriptyline, 20 minutes); 77.0 ± 40.2 in experiment [2] (Experiment One, amitriptyline, 25 minutes); 65.0 ± 36.2 in experiment [2] (Experiment One, amitriptyline, 30 minutes). In addition, the “Mean number of behaviors per 5 minute block” value in experiment [2] (Experiment One, amitriptyline, 35 minutes) came out at 66.0 ± 34.4; in experiment [2] (Experiment One, amitriptyline, 40 minutes), 58.0 ± 33.3; in experiment [2] (Experiment One, amitriptyline, 45 minutes), 33.0 ± 22.6; in experiment [2] (Experiment One, amitriptyline, 50 minutes), 11.0 ± 10.3; in experiment [2] (Experiment One, amitriptyline, 55 minutes), 2.0 ± 1.1; in experiment [2] (Experiment One, amitriptyline, 60 minutes) it was 1.0 ± 0.6. Further, the “Mean number of behaviors per 5 minute block” value in experiment [2] (Experiment One, nortriptyline, 5 minutes) worked out at 120.0 ± 25.2; in experiment [2] (Experiment One, nortriptyline, 10 minutes), 7.0 ± 5.3; in experiment [2] (Experiment One, nortriptyline, 15 minutes), 2.0 ± 1.5; in experiment [2] (Experiment One, nortriptyline, 20 minutes) it was 2.0 ± 1.1; in experiment [2] (Experiment One, nortriptyline, 25 minutes), 1.0 ± 0.4; in experiment [2] (Experiment One, nortriptyline, 30 minutes) it was 0.0 ± 0.0. Besides, the “Mean number of behaviors per 5 minute block” value is recorded as 0.0 ± 0.4 in experiment [2] (Experiment One, nortriptyline, 35 minutes); 1.0 ± 1.2 in experiment [2] (Experiment One, nortriptyline, 40 minutes); 20.0 ± 20.0 in experiment [2] (Experiment One, nortriptyline, 45 minutes); 29.0 ± 28.6 in experiment [2] (Experiment One, nortriptyline, 50 minutes); 29.0 ± 29.1 in experiment [2] (Experiment One, nortriptyline, 55 minutes); 55.0 ± 36.4 in experiment [2] (Experiment One, nortriptyline, 60 minutes). In addition, the “Mean number of behaviors per 5 minute block” value in experiment [2] (Experiment Two, 5 minutes) was determined as 64.0 ± 35.3; in experiment [2] (Experiment Two, 10 minutes), 3.0 ± 3.0; in experiment [2] (Experiment Two, 15 minutes), 0.0 ± 0.0; in experiment [2] (Experiment Two, 20 minutes), 0.0 ± 0.4; in experiment [2] (Experiment Two, 25 minutes), 0.0 ± 0.3; in experiment [2] (Experiment Two, 30 minutes) it was 1.0 ± 1.1. The “Mean number of behaviors per 5 minute block” value in experiment [2] (Experiment Two, 35 minutes) turned out to be 1.0 ± 0.9; in experiment [2] (Experiment Two, 40 minutes), 0.0 ± 0.1; in experiment [2] (Experiment Two, 45 minutes), 8.0 ± 8.2; in experiment [2] (Experiment Two, 50 minutes), 25.0 ± 16.4; in experiment [2] (Experiment Two, 55 minutes), 56.0 ± 35.9; in experiment [2] (Experiment Two, 60 minutes) it was 51.0 ± 36.9.

For the origin of these results see US20080280862A1, “Methods, compositions, and kits for the treatment of pain” (priority 2007, published 2008).
